The values below come from patent US12419884B2, “Compositions and methods for treating iron overload” (BRIGHAM YOUNG UNIVERSITY, priority 2018, dated 2025).

Molecules are shown by their SMILES.

furin, sequence (P09958 108-794, species assumed): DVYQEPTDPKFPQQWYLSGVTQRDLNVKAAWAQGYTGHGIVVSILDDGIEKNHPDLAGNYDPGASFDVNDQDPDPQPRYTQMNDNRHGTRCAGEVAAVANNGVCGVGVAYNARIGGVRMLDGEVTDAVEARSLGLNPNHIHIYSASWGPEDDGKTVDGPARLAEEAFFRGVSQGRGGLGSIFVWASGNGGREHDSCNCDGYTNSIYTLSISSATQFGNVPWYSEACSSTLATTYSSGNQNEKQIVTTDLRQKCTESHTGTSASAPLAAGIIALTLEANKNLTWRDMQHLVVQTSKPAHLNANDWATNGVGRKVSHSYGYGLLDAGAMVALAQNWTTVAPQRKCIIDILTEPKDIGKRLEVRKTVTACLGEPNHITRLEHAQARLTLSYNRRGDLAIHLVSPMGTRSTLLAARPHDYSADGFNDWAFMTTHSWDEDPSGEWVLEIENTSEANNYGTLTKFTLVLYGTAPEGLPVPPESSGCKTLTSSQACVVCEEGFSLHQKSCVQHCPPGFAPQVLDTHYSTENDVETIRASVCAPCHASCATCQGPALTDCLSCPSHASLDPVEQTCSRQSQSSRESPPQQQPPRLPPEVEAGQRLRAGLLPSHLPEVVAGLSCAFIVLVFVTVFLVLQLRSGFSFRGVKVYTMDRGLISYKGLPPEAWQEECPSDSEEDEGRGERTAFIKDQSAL

One assay relates to hepcidin secretion from HepG2 cells. Nature of the assay: hepcidin secretion from IL-6 inflamed HepG2 cells, ELISA. Format: cell-based. To be noted: IL-6 (10 ng/mL), inhibitors at 10 ng/mL, FIG. 8. The method, then: HepG2 cells were cultured with controls not treated with additional treatments. The remaining cells were all treated to induce inflammation IL-6 (10 ng/mL). Inhibitors were added at 10 ng/mL to block furin and prevent the cleavage of prohepcidin to hepcidin. Hepcidin secreted into the growth media was measured by ELISA.
For orientation: An ELISA detects its analyte on a solid surface through an enzyme-linked reagent.
With `CC(C)CN(C[C@@H](OP(=O)(O)O)[C@H](Cc1ccccc1)NC(=O)O[C@H]1CCOC1)S(=O)(=O)c1ccc(N)cc1` [fosamprenavir], the “inhibition of hepcidin secretion” value was “showed inhibition of hepcidin secretion”. Same read-out and setting: the entry for `Cc1cccc(C)c1OCC(=O)N[C@@H](Cc1ccccc1)[C@@H](O)C[C@H](Cc1ccccc1)NC(=O)[C@H](C(C)C)N1CCCNC1=O` [Lopinavir, (2S)—N-[(2S,4S,5S)-5-[2-(2,6-dimethylphenoxy)acetamido]-4-hydroxy-1,6-diphenylhexan-2-yl]-3-methyl-2-(2-oxo-1,3-diazinan-1-yl)butanamide] is “showed inhibition of hepcidin secretion”. On to `COC(=O)N[C@H](C(=O)N[C@@H](Cc1ccccc1)[C@@H](O)CN(Cc1ccc(-c2ccccn2)cc1)NC(=O)[C@@H](NC(=O)OC)C(C)(C)C)C(C)(C)C` [Atazanvir, methyl N-[(1S)-1-{[(2S,3S)-3-hydroxy-4-[(2S)-2-[(methoxycarbonyl)amino]-3,3-dimethyl-N′-{[4-(pyridin-2-yl)phenyl]methyl}butanehydrazido]-1-phenylbutan-2-yl]carbamoyl}-2,2-dimethylpropyl]carbamate], for which the “inhibition of hepcidin secretion” value is “showed inhibition of hepcidin secretion”.

The test system is the same in a further assay. Nature of the assay: hepcidin secretion from IL-6 and BMP-9 inflamed HepG2 cells, Mass Spectrometry. Format: cell-based. To be noted: IL-6 and BMP-9 (10 ng/mL each), inhibitors at 10 micromolar, FIG. 9.
Experimental: HepG2 cells were cultured with controls not treated with additional treatments. The remaining cells were all treated to induce inflammation IL-6 and BMP-9 (both cytokines were dosed at 10 ng/mL). Inhibitors were added at 10 micromolar to block furin and prevent the cleavage of prohepcidin to hepcidin. Hepcidin secreted into the growth media was measured by Mass Spectrometry.
With `CC(C)(C)NC(=O)[C@@H]1CN(Cc2cccnc2)CCN1C[C@@H](O)C[C@@H](Cc1ccccc1)C(=O)N[C@H]1c2ccccc2C[C@H]1O` [indinavir, (2S)-1-[(2S,4R)-4-benzyl-2-hydroxy-4-{[(1S,2R)-2-hydroxy-2,3-dihydro-1Hinden-1-yl]carbamoyl}butyl]-N-tert-butyl-4-(pyridin-3-ylmethyl)piperazine-2-carboxamide], the “inhibition of hepcidin secretion” value is “more potent response”. Turning to `CC(C)c1nc(CN(C)C(=O)N[C@H](C(=O)N[C@@H](Cc2ccccc2)C[C@H](O)[C@H](Cc2ccccc2)NC(=O)OCc2cncs2)C(C)C)cs1` [Ritonavir], the “inhibition of hepcidin secretion” value is recorded as “small inhibitory effect”.

Another assay concerns the target furin (Homo sapiens, UniProt P09958). The assay can be described thus: furin fluorescence assay / enzyme assays with purified furin. To be noted: in vitro fluorescence assay; 55, 110 and 220 micromolar doses; FIG. 7.
Regarding `CC(C)(C)NC(=O)[C@@H]1CC2CCCCC2CN1C[C@@H](O)[C@H](Cc1ccccc1)NC(=O)[C@H](CC(N)=O)NC(=O)c1ccc2ccccc2n1` (stereo partly drawn) [Saquinavir, (2S)—N-[(2S,3R)-4-[(3S)-3-(tert-butylcarbamoyl)-decahydroisoquinolin-2-yl]-3-hydroxy-1-phenylbutan-2-yl]-2-(quinolin-2-yl-formamido)butanediamide], the furin inhibition result is given as “very weak dose dependent inhibition of furin”. On the same count and under the same terms, the entry for `Cc1c(O)cccc1C(=O)N[C@@H](CSc1ccccc1)[C@H](O)CN1C[C@H]2CCCC[C@H]2C[C@H]1C(=O)NC(C)(C)C` [Nelfinavir, (3S,4aS,8aS)—N-tert-butyl-2-[(2R,3R)-2-hydroxy-3-[(3-hydroxy-2-methylphenyl)formamido]-4-(phenylsulfanyl)butyl]-decahydroisoquinoline-3-carboxamide] is “most potent furin inhibition”. With `CC(C)c1nc(CN(C)C(=O)N[C@H](C(=O)N[C@@H](Cc2ccccc2)C[C@H](O)[C@H](Cc2ccccc2)NC(=O)OCc2cncs2)C(C)C)cs1` [Ritonavir], the furin inhibition entry is on record as “most potent furin inhibition”.

Take `CC(C)CN(C[C@@H](O)[C@H](Cc1ccccc1)NC(=O)O[C@H]1CO[C@H]2OCC[C@H]21)S(=O)(=O)c1ccc(N)cc1` [Darunavir, [(1R,5S,6R)-2,8-dioxabicyclo[3.3.0]oct-6-yl] N-[(2S,3R)-4-[(4-aminophenyl)sulfonyl-(2-methylpropyl)amino]-3-hydroxy-1-phenyl-butan-2-yl]carbamate]: the furin inhibition result is “most potent furin inhibition”.
